Test results as given in US3984432A, “Color photographic recording material” (priority 1973, dated 1976).

Experiment: Absorption maximum after colour development in a photographic silver halide layer according to Use Example I
Format: physicochemical
Conditions: pyrazolone coupling agents
Experimental: The compounds of the formulae which follow are prepared according to methods which are in themselves known, from the corresponding 4-equivalentcoupling agents (the corresponding compounds with hydrogen in the position marked with *, in place of the substituents drawn). With regard to methods of manufacture, compare DT-OS or DT-AS 1,236,332, 2,043,271, 1,547,672 or 1,187,477. Next to the formula, the absorption maximum in nm is specified in each case (see footnote to Table I). ##SPC8##
*)After colour development of the coupling agents in a photographic silve
halide layer according to Use Example I
0.3 mmol of coupling agent of the formula (215) is dissolved in 2.0 ml of tricresyl phosphate/methylene chloride (3:7). The methylene chloride is evaporated off, 6.0 ml of an 8% strength aqueous solution of sodium isopropylnaphthalene-sulphonate, 20.0 ml of 6% strength gelatine solution and 3.4 ml of water are added and the mixture is adjusted to pH 6.5 and emulsified for 5 minutes by means of an ultrasonic apparatus with an output of 100 watt.
5.0 of coupling agent emulsion freshly treated with ultrasonics, 3.3 ml of silver bromide emulsion of pH 6.5, containing 1.4% of silver and 6.0% of gelatine, 2.0 ml of 1% strength aqueous solution of the hardener of the formula [formula] and 1.7 ml of water are mixed with one another and cast at 40°C on a substrated glass plate of size 13 cm × 18 cm. After solidifying at 10° C, the plate is dried in a drying cabinet with circulating air at 32° C.
A strip cut to 4.0 cm × 6.5 cm is exposed to 500 Lux/cm^2 under a step wedge for 2 seconds and is subsequently treated at 24° C as follows: […]

| SMILES | Abs.max., first of two maxima (subsidiary maximum) [nm] | Abs.max., second of two maxima (absorption maximum) [nm] |
| --- | --- | --- |
| CCOP(=O)(CCCOc1cccc(C(=O)Nc2cccc(C(=O)NC3=NN(c4c(Cl)cc(Cl)cc4Cl)C(=O)C3)c2)c1)OCC [(205)] | 434 | 542 |
| CCOP(=O)(CCCOc1ccc(C(=O)Nc2cccc(C(=O)NC3=NN(c4c(Cl)cc(Cl)cc4Cl)C(=O)C3)c2)cc1)OCC [(206)] | 434 | 542 |
| CCOP(=O)(CCCCCOc1cccc(C(=O)Nc2ccc(C(=O)NC3=NN(c4c(Cl)cc(Cl)cc4Cl)C(=O)C3)cc2)c1)OCC [(207)] | 434 | 540 |
| CCOP(=O)(CCCOc1cc(OCCCP(=O)(OCC)OCC)cc(C(=O)Nc2ccc(C(=O)NC3=NN(c4c(Cl)cc(Cl)cc4Cl)C(=O)C3)cc2)c1)OCC [(208)] | 434 | 546 |
| CCOP(=O)(CCCOc1cc(OCCCP(=O)(OCC)OCC)cc(C(=O)NC2=NN(c3c(Cl)cc(Cl)cc3Cl)C(=O)C2)c1)OCC [(209)] | 436 | 540 |
| CC(C)OP(=O)(CCCOc1cccc(C(=O)Nc2ccc(C(=O)NC3=NN(c4c(Cl)cc(Cl)cc4Cl)C(=O)C3)cc2)c1)OC(C)C [(210)] | 434 | 543 |
| CCCCOP(=O)(CCCOc1cccc(C(=O)Nc2ccc(C(=O)NC3=NN(c4c(Cl)cc(Cl)cc4Cl)C(=O)C3)cc2)c1)OCCCC [(211)] | 434 | 543 |
| CCOP(=O)(CCCCCOc1cc(OCCCCCP(=O)(OCC)OCC)cc(C(=O)Nc2ccc(C(=O)NC3=NN(c4c(Cl)cc(Cl)cc4Cl)C(=O)C3)cc2)c1)OCC [(212)] | 434 | 544 |
| CCOP(=O)(CCCCCOc1cccc(C(=O)NC2=NN(c3c(Cl)cc(Cl)cc3Cl)C(=O)C2)c1)OCC [(213)] | 434 | 537 |
| CCOP(=O)(CCCCCOc1cc(OCCCCCP(=O)(OCC)OCC)cc(C(=O)NC2=NN(c3c(Cl)cc(Cl)cc3Cl)C(=O)C2)c1)OCC [(214)] | 432 | 540 |
| CCCCC(CC)COP(=O)(CCCOc1cccc(C(=O)Nc2ccc(C(=O)NC3=NN(c4c(Cl)cc(Cl)cc4Cl)C(=O)C3)cc2)c1)OCC(CC)CCCC (centres unmarked) [(215)] | 434 | 540 |
| CCOP(=O)(CCCOc1cc(OCCCP(=O)(OCC)OCC)cc(C(=O)Nc2cccc(C(=O)NC3=NN(c4c(Cl)cc(Cl)cc4Cl)C(=O)C3)c2)c1)OCC [(216)] | 432 | 546 |
| CC(C)OP(=O)(CCCOc1cccc(C(=O)NC2=NN(c3c(Cl)cc(Cl)cc3Cl)C(=O)C2)c1)OC(C)C [(217)] | 435 | 538 |
| CCCCOP(=O)(CCCOc1cc(OCCCP(=O)(OCCCC)OCCCC)cc(C(=O)Nc2ccc(C(=O)NC3=NN(c4c(Cl)cc(Cl)cc4Cl)C(=O)C3)cc2)c1)OCCCC [(218)] | 436 | 542 |
| CCCCC(CC)COP(=O)(CCCOc1cccc(C(=O)Nc2cccc(C(=O)NC3=NN(c4c(Cl)cc(Cl)cc4Cl)C(=O)C3)c2)c1)OCC(CC)CCCC (centres unmarked) [(219)] | 436 | 542 |
| CCCCOP(=O)(CCCOc1cccc(C(=O)Nc2cccc(C(=O)NC3=NN(c4c(Cl)cc(Cl)cc4Cl)C(=O)C3)c2)c1)OCCCC [(220)] | 434 | 544 |
| CCCCOP(=O)(CCCOc1cc(OCCCP(=O)(OCCCC)OCCCC)cc(C(=O)NC2=NN(c3c(Cl)cc(Cl)cc3Cl)C(=O)C2)c1)OCCCC [(221)] | 436 | 538 |
| CCCCOP(=O)(CCCOc1cc(OCCCP(=O)(OCCCC)OCCCC)cc(C(=O)Nc2cccc(C(=O)NC3=NN(c4c(Cl)cc(Cl)cc4Cl)C(=O)C3)c2)c1)OCCCC [(222)] | 434 | 544 |
| CCOP(=O)(CCCOc1cccc(C(=O)Nc2cccc(C(=O)NC3=NN(c4ccccc4)C(=O)C3)c2)c1)OCC [(223)] | 440 | 534 |

| SMILES | Abs.max., first of two maxima (subsidiary maximum) [nm] | Abs.max., second of two maxima (absorption maximum) [nm] |
| --- | --- | --- |
| CCCCOP(=O)(CCCOc1cccc(C(=O)Nc2cccc(C(=O)NC3=NN(c4ccccc4)C(=O)C3)c2)c1)OCCCC [(224)] | 440 | 534 |
| CCCCC(CC)COP(=O)(CCCOc1cccc(C(=O)Nc2cccc(C(=O)NC3=NN(c4ccccc4)C(=O)C3)c2)c1)OCC(CC)CCCC (centres unmarked) [(225)] | 440 | 532 |
| CCOP(=O)(CCCCCOc1cc(OCCCCCP(=O)(OCC)OCC)cc(C(=O)Nc2cccc(C(=O)NC3=NN(c4ccccc4)C(=O)C3)c2)c1)OCC [(226)] | 439 | 534 |
| CCOP(=O)(CCCCCOc1cccc(C(=O)Nc2cccc(C(=O)NC3=NN(c4ccccc4)C(=O)C3)c2)c1)OCC [(227)] | 438 | 532 |
| CCOP(=O)(CCCOc1cc(OCCCP(=O)(OCC)OCC)cc(C(=O)Nc2cccc(C(=O)NC3=NN(c4ccccc4)C(=O)C3)c2)c1)OCC [(228)] | 438 | 533 |
| CCCCOP(=O)(CCCOc1cc(OCCCP(=O)(OCCCC)OCCCC)cc(C(=O)Nc2cccc(C(=O)NC3=NN(c4ccccc4)C(=O)C3)c2)c1)OCCCC [(229)] | 440 | 532 |
| CCOP(=O)(CCCCCOc1cccc(C(=O)Nc2cccc(C(=O)NC3=NN(c4c(Cl)cc(Cl)cc4Cl)C(=O)C3)c2)c1)OCC [(230)] | 434 | 544 |
| CC(C)OP(=O)(CCCOc1cccc(C(=O)Nc2cccc(C(=O)NC3=NN(c4c(Cl)cc(Cl)cc4Cl)C(=O)C3)c2)c1)OC(C)C [(232)] | 434 | 541 |
| CCCCC(CC)COP(=O)(CCCOc1cc(OCCCP(=O)(OCC(CC)CCCC)OCC(CC)CCCC)cc(C(=O)Nc2ccc(C(=O)NC3=NN(c4c(Cl)cc(Cl)cc4Cl)C(=O)C3)cc2)c1)OCC(CC)CCCC (centres unmarked) [(234)] | 434 | 540 |
| CCCCC(CC)COP(=O)(CCCOc1cc(OCCCP(=O)(OCC(CC)CCCC)OCC(CC)CCCC)cc(C(=O)Nc2cccc(C(=O)NC3=NN(c4ccccc4)C(=O)C3)c2)c1)OCC(CC)CCCC (centres unmarked) [(235)] | 440 | 532 |
| CCCCOP(=O)(CCCOc1cccc(C(=O)NC2=NN(c3c(Cl)cc(Cl)cc3Cl)C(=O)C2)c1)OCCCC [(237)] | 432 | 536 |
| CC(C)OP(=O)(CCCOc1cc(OCCCP(=O)(OC(C)C)OC(C)C)cc(C(=O)Nc2cccc(C(=O)NC3=NN(c4ccccc4)C(=O)C3)c2)c1)OC(C)C [(238)] | 440 | 530 |
| CC(C)OP(=O)(CCCCCOc1cc(OCCCCCP(=O)(OC(C)C)OC(C)C)cc(C(=O)Nc2cccc(C(=O)NC3=NN(c4ccccc4)C(=O)C3)c2)c1)OC(C)C [(239)] | 440 | 532 |
| CC(C)OP(=O)(CCCOc1cc(OCCCP(=O)(OC(C)C)OC(C)C)cc(C(=O)Nc2cccc(C(=O)NC3=NN(c4c(Cl)cc(Cl)cc4Cl)C(=O)C3)c2)c1)OC(C)C [(240)] | 434 | 544 |
| CC(C)OP(=O)(CCCCCOc1cc(OCCCCCP(=O)(OC(C)C)OC(C)C)cc(C(=O)Nc2cccc(C(=O)NC3=NN(c4c(Cl)cc(Cl)cc4Cl)C(=O)C3)c2)c1)OC(C)C [(243)] | 434 | 544 |
| CC(C)OP(=O)(CCCCCOc1cccc(C(=O)Nc2ccc(C(=O)NC3=NN(c4c(Cl)cc(Cl)cc4Cl)C(=O)C3)cc2)c1)OC(C)C [(244)] | 434 | 542 |
| CC(C)OP(=O)(CCCCCOc1cccc(C(=O)Nc2cccc(C(=O)NC3=NN(c4c(Cl)cc(Cl)cc4Cl)C(=O)C3)c2)c1)OC(C)C [(245)] | 434 | 542 |
| CC(C)OP(=O)(CCCCCOc1cccc(C(=O)Nc2cccc(C(=O)NC3=NN(c4ccccc4)C(=O)C3)c2)c1)OC(C)C [(246)] | 440 | 532 |
